Common to all, as to assay type: biochemical
The target of one test is T1, KDR (Homo sapiens, UniProt P35968).
T1 construct: selectivity panel
The test is described as follows: Z'LYTE kinase selectivity assay. An excerpt: Z'LYTE kinase selectivity assay on KDR

The target of another test is T2, Aurora A (Homo sapiens, UniProt O14965).
T2 construct: gene AURKA; full length in pET21d, 6xHis tag (Aurora A-6xHis), E. coli, Ni-NTA purified
T2 sequence (O14965 1-403): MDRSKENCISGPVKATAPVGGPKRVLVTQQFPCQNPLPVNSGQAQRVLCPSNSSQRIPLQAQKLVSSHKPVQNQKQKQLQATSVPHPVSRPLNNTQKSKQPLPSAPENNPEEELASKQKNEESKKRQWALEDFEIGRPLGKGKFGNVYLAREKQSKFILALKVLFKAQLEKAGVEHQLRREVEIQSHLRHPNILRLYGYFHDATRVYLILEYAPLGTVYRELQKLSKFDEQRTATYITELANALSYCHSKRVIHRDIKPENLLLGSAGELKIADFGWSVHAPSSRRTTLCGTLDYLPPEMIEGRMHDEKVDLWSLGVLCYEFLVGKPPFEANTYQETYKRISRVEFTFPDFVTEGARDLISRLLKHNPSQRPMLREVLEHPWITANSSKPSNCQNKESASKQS
In words: in vitro kinase assay (Z'LYTE Ser/Thr […] peptide; Easylite luminescence ATP detection).

For the next test, the target named is T3, Aurora B (Homo sapiens, UniProt Q96GD4).
T3 construct: gene AURKB; selectivity panel
T3 sequence (Q96GD4 whole entry): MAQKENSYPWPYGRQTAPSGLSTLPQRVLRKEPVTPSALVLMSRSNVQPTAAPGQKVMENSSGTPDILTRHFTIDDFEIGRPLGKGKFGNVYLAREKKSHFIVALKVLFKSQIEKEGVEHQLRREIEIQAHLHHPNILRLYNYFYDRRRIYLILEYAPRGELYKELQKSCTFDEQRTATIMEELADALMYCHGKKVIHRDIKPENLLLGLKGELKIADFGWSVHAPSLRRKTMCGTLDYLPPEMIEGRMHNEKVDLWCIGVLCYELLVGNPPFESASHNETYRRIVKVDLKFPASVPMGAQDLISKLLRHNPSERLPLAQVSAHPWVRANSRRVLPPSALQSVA
The test is described as follows: Z'LYTE kinase selectivity assay. An excerpt: Z'LYTE kinase selectivity assay on Aurora B

A further test addresses T4, FGFR.
T4 construct: gene FGFR1; selectivity panel
In words: Z'LYTE kinase selectivity assay. An excerpt:
Z'LYTE kinase selectivity assay on FGFR

Another test deals with T5, IGF1R (Homo sapiens, UniProt P08069).
T5 construct: selectivity panel
T5 sequence (P08069 31-736): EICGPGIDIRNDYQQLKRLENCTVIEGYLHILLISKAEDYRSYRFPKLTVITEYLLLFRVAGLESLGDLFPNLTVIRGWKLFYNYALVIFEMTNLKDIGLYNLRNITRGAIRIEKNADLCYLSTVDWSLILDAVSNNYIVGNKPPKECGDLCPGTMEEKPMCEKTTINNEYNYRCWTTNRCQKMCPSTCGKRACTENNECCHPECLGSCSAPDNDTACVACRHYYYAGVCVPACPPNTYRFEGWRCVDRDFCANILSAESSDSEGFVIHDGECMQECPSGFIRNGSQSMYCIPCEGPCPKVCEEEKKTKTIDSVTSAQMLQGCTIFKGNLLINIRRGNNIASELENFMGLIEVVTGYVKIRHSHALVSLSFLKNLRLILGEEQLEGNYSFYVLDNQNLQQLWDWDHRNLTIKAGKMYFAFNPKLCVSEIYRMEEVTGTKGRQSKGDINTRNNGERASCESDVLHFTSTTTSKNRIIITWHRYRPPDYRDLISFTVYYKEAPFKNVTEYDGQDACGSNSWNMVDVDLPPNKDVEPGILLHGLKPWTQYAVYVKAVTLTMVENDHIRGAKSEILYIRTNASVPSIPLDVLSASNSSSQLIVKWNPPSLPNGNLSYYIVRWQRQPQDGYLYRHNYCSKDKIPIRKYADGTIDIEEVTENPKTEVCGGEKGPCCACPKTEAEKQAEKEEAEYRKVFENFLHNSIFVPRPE
T5 sequence (P08069 741-1367): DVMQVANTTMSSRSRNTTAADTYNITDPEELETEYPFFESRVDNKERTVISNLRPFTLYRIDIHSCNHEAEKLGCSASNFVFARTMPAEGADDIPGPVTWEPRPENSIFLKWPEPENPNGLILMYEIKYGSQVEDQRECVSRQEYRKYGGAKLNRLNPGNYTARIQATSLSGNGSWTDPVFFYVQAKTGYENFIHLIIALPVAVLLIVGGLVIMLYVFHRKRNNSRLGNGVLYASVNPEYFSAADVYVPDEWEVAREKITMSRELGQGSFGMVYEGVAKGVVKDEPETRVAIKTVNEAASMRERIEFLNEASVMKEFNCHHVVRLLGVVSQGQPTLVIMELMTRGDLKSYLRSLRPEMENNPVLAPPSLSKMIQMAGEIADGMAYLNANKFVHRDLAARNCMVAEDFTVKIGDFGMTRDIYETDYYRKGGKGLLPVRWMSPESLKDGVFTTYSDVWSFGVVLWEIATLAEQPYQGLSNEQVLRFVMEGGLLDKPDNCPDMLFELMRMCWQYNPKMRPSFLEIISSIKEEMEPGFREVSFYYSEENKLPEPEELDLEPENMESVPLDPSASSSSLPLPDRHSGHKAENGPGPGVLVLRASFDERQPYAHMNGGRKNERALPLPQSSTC
The test is described as follows: Z'LYTE kinase selectivity assay. An excerpt: Z'LYTE kinase selectivity assay on IGF1R

A further test has as its target T6, EGFR (Homo sapiens, UniProt P00533).
T6 construct: selectivity panel
In words: Z'LYTE kinase selectivity assay. An excerpt: Z'LYTE kinase selectivity assay on EGFR

Molecules are shown by their SMILES. Where two headings read alike, the source gives them in different places.

T6 sequence (P00533 25-1210): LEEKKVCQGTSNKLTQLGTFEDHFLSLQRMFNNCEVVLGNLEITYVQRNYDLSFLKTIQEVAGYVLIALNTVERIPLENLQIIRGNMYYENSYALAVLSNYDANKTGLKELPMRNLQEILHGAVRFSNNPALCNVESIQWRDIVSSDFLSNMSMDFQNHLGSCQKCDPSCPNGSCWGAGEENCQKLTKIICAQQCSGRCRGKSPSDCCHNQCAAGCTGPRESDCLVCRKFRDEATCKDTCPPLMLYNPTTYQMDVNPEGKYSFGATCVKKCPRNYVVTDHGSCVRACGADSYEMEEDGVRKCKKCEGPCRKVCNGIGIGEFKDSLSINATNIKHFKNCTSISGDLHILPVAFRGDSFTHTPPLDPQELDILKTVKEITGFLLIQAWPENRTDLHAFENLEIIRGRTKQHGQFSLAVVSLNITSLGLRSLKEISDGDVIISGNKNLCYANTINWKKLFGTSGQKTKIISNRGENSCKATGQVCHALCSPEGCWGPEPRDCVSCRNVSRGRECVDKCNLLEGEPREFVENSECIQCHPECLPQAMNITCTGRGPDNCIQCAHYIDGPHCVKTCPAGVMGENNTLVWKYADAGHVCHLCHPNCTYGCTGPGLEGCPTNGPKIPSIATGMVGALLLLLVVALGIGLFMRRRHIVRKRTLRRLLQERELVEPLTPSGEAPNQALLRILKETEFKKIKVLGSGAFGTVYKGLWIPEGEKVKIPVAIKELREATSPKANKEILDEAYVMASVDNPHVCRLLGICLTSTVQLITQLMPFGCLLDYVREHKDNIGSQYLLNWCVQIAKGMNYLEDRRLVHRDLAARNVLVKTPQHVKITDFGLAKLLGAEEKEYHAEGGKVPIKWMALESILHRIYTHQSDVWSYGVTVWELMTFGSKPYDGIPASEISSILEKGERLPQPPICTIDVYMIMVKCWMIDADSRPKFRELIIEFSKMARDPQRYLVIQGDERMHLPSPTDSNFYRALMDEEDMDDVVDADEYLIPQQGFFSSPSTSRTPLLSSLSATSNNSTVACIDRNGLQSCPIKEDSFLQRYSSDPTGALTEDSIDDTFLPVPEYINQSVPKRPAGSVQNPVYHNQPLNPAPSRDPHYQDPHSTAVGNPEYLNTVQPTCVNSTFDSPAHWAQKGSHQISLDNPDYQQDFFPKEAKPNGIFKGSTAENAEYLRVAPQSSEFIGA
T1 sequence (P35968 20-1356): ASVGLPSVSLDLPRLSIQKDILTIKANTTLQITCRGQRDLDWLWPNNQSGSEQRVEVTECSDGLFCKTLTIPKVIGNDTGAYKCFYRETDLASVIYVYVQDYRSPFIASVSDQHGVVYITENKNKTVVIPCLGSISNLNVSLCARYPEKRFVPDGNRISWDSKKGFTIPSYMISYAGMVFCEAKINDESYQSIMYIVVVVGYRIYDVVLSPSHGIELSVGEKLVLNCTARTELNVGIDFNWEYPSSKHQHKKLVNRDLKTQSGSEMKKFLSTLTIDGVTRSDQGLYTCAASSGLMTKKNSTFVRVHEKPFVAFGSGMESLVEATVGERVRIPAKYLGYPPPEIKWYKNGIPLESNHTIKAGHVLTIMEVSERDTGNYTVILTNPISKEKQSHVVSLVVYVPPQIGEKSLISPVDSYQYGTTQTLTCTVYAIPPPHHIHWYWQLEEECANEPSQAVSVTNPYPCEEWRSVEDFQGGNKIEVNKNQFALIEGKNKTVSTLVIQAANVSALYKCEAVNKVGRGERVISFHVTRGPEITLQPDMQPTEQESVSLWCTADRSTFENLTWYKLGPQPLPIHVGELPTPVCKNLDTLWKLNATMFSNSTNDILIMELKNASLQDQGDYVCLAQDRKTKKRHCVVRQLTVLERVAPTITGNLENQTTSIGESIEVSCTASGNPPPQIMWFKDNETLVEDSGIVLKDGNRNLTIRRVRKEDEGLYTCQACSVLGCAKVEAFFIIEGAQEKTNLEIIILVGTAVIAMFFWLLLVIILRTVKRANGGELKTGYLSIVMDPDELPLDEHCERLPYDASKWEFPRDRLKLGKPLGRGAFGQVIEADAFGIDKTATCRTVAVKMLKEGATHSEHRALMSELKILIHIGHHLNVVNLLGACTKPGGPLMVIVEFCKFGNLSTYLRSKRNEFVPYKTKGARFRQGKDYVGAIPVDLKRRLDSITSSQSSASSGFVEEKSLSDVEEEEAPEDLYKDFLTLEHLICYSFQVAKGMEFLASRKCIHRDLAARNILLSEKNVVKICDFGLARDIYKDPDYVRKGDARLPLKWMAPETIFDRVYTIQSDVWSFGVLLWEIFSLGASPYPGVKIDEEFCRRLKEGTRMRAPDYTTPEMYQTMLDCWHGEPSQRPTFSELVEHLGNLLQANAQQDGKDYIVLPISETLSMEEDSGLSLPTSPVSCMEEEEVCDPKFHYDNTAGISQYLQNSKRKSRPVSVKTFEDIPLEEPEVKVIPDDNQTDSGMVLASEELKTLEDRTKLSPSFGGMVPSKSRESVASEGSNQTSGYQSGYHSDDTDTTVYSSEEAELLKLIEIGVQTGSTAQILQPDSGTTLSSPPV

Consider `O=C1Nc2ccccc2C1=Cc1cnc[nH]1` [Tripolin B, 3-(3H-Imidazol-4-ylmethylene)-1,3-dihydro-indol-2-one], for which the IC50 on KDR (read-out: Tripolin B) came to 6.5 µM; at Aurora A (read-out: Tripolin B) it was 2500 nM; at Aurora B (read-out: Tripolin B) it was 6 µM; at FGFR (read-out: Tripolin B), 38 µM; on IGF1R (read-out: Tripolin B) it was 13.2 µM; at EGFR (read-out: Tripolin B) it was 71.7 µM.
`O=C1Nc2ccccc2C1=Cc1cc(O)ccc1O` [Tripolin A, 3-(2,5-Dihydroxy-benzylidene)-1,3-dihydro-indol-1-one]: the IC50 at KDR (read-out: Tripolin A) turned out to be 17.9 µM; on Aurora A (read-out: Tripolin A), 1500 nM; at Aurora B (read-out: Tripolin A) it was 7 µM; at FGFR (read-out: Tripolin A) it was 33.4 µM; at IGF1R (read-out: Tripolin A), 14.9 µM; at EGFR (read-out: Tripolin A), 11 µM.

The values above are taken from article PMC3596387, “Tripolin A, a Novel Small-Molecule Inhibitor of Aurora A Kinase, Reveals New Regulation of HURP's Distribution on Microtubules” (PLoS ONE, 2013).
